Test results as given in patent publication US9204653B2, “5-fluoro pyrimidine derivatives” (DOW AGROSCIENCES LLC, priority 2008, dated 2015).
Like-named read-outs stand apart in the source and are kept apart here.

Experiments:
[1] = tested on: Venturia inaequalis; Bayer Code VENTIN; assay: Apple scab; type: in vivo; details: 24 h, % disease control rating, one day protectant; for pest or weed control at 25 ppm: read-out: VENTIN 1 DP 25 ppm; for pest or weed control at 75 ppm: read-out: VENTIN 1 DP 75 ppm
[2] = tested on: Mycosphaerella graminicola; Anamorph: Septoria tritici; Bayer Code SEPTTR; assay: Leaf blotch of wheat, foliar fungicide treatment, one day protectant (1DP) or three day curative (3DC); type: in vivo, Septoria tritici on wheat plants (variety Yuma); details: Zymoseptoria tritici; for pest or weed control at 50 ppm / pest or weed control at 200 ppm: % disease control rating
[3] = tested on: Cercospora beticola; Bayer Code CERCBE; assay: Leaf spot of sugar beets; type: in vivo, Cercospora beticola on sugar beets (variety HH-88); details: 24 h, % disease control rating, one day protectant; for pest or weed control at 25 ppm: read-out: CERCBE 1 DP 25 ppm; for pest or weed control at 75 ppm: read-out: CERCBE 1 DP 75 ppm
[4] = 24 h, one day protectant (1DP), rating of percent disease control, read-out: SETTTR 1DP 25 ppm
[5] = 24 h, one day protectant (1DP), rating of percent disease control, read-out: SEPTTR 1DP 100 ppm
[6] = 72 h, three day curative (3DC), rating of percent disease control, read-out: SEPTTR 3DC 25 ppm
[7] = 72 h, three day curative (3DC), rating of percent disease control, read-out: SEPTTR 3DC 100 ppm
[8] = 24 h, one day protectant (1DP), percent disease control rating, read-out: SETTTR 1DP 25 ppm
[9] = 24 h, one day protectant (1DP), percent disease control rating, read-out: SEPTTR 1DP 100 ppm
[10] = 72 h, three day curative (3DC), percent disease control rating, read-out: SEPTTR 3DC 25 ppm
[11] = 72 h, three day curative (3DC), percent disease control rating, read-out: SEPTTR 3DC 100 ppm
[12] = 24 h, one day protectant, rating of percent disease control, read-out: SETTTR 1DP 25 ppm
[13] = 24 h, one day protectant, rating of percent disease control, read-out: SEPTTR 1DP 100 ppm
[14] = 72 h, three day curative, rating of percent disease control, read-out: SEPTTR 3DC 25 ppm
[15] = 72 h, three day curative, rating of percent disease control, read-out: SEPTTR 3DC 100 ppm

Row | SMILES | pest or weed control at 25 ppm [1] [%] | pest or weed control at 75 ppm [1] [%] | pest or weed control at 25 ppm [2, 4] [%] | pest or weed control at 100 ppm [2, 5] [%] | pest or weed control at 25 ppm [2, 6] [%] | pest or weed control at 100 ppm [2, 7] [%] | pest or weed control at 25 ppm [3] [%] | pest or weed control at 75 ppm [3] [%] | pest or weed control at 25 ppm [2, 8] [%] | pest or weed control at 100 ppm [2, 9] [%] | pest or weed control at 25 ppm [2, 10] [%] | pest or weed control at 100 ppm [2, 11] [%] | pest or weed control at 25 ppm [2, 12] [%] | pest or weed control at 100 ppm [2, 13] [%] | pest or weed control at 25 ppm [2, 14] [%] | pest or weed control at 100 ppm [2, 15] [%] | pest or weed control at 50 ppm ([2]; 24 h, one day protectant) [%] | pest or weed control at 200 ppm ([2]; 24 h, one day protectant) [%]
1 | CN(C)/C=N/c1nc(OCCNc2ccccc2)ncc1F [Compound 248] | 0 to 25 | 51 to 75 | 0 to 25 | 76 to 100 | 76 to 100 | 76 to 100 | 0 to 25 | 0 to 25 |  |  |  |  |  |  |  |  |  | 
2 | NN(c1nc(OCc2ccc(F)cc2)ncc1F)C1CCCCC1 [Compound 353] | 26 to 50 | 76 to 100 | 0 to 25 | 0 to 25 | 0 to 25 | 0 to 25 | 26 to 50 | 26 to 50 |  |  |  |  |  |  |  |  |  | 
3 | Nc1nc(OCc2ccc(F)cc2C(F)(F)F)ncc1F [Compound 271] | 26 to 50 | 51 to 75 | 76 to 100 | 76 to 100 | 51 to 75 | 76 to 100 | 26 to 50 | 26 to 50 |  |  |  |  |  |  |  |  |  | 
4 | CN(C)/C=N/c1nc(OC(=O)c2ccc(Cl)cc2Cl)ncc1F [Compound 260] | 76 to 100 | 76 to 100 | 76 to 100 | 76 to 100 | 76 to 100 | 76 to 100 | 76 to 100 | 51 to 75 |  |  |  |  |  |  |  |  |  | 
5 | O=[N+]([O-])c1ccccc1SNc1nc(OCc2cc(C(F)(F)F)cc(C(F)(F)F)c2)ncc1F [Compound 125] | 26 to 50 | 76 to 100 |  |  |  |  | 26 to 50 | 26 to 50 | 26 to 50 | 26 to 50 | 0 to 25 | 0 to 25 |  |  |  |  |  | 
6 | C=CC(C)Oc1ncc(F)c(N)n1 (centres unmarked) [Compound 631] | 0 to 25 | 26 to 50 |  |  |  |  | 0 to 25 | 0 to 25 |  |  |  |  | 0 to 25 | 0 to 25 | 0 to 25 | 0 to 25 |  | 
7 | C=CCc1cc(COc2ncc(F)c(N)n2)cc(OC)c1OC [Compound 569] | 76 to 100 | 76 to 100 |  |  |  |  | 26 to 50 | 76 to 100 |  |  |  |  | 76 to 100 | 76 to 100 | 51 to 75 | 76 to 100 |  | 
8 | Fc1cnc(OCc2cccs2)nc1NCc1ccc2c(c1)OCO2 [Compound 804] | 0 to 25 | 0 to 25 |  |  |  |  | 0 to 25 | 0 to 25 |  |  |  |  |  |  |  |  | 26 to 50 | 51 to 75
9 | CNc1nc(OCc2ccc(OC)c(C(F)(F)F)c2)ncc1F [Compound 155] | 26 to 50 | 0 to 25 |  |  |  |  | 0 to 25 | 0 to 25 | 51 to 75 | 76 to 100 | 76 to 100 | 76 to 100 |  |  |  |  |  | 
10 | CC(Oc1ncc(F)c(N)n1)c1cccc2ccccc12 (centres unmarked) [Compound 335] | 76 to 100 | 76 to 100 | 76 to 100 | 76 to 100 | 76 to 100 | 76 to 100 | 26 to 50 | 76 to 100 |  |  |  |  |  |  |  |  |  | 
11 | COc1cc(COc2ncc(F)c(N)n2)cc(Cl)n1 [Compound 311] | 26 to 50 | 26 to 50 | 76 to 100 | 76 to 100 | 76 to 100 | 76 to 100 | 26 to 50 | 26 to 50 |  |  |  |  |  |  |  |  |  | 
12 | Cc1ccc(COc2ncc(F)c(NN)n2)cc1 [Compound 538] | 26 to 50 | 51 to 75 | 26 to 50 | 51 to 75 | 51 to 75 | 76 to 100 | 0 to 25 | 0 to 25 |  |  |  |  |  |  |  |  |  | 
13 | Fc1ccc(COc2ncc(F)c(NCn3c(-c4cscn4)nc4ccccc43)n2)cc1 [Compound 694] | 26 to 50 | 51 to 75 |  |  |  |  | 26 to 50 | 26 to 50 |  |  |  |  | 0 to 25 | 26 to 50 | 0 to 25 | 26 to 50 |  | 
14 | COc1ccccc1CCOc1ncc(F)c(N)n1 [Compound 524] | 51 to 75 | 51 to 75 | 0 to 25 | 51 to 75 | 0 to 25 | 51 to 75 | 0 to 25 | 0 to 25 |  |  |  |  |  |  |  |  |  | 
15 | COc1c(F)cccc1COc1ncc(F)c(N)n1 [Compound 341] | 26 to 50 | 0 to 25 | 76 to 100 | 76 to 100 | 76 to 100 | 76 to 100 | 0 to 25 | 0 to 25 |  |  |  |  |  |  |  |  |  | 
16 | Cc1cnc(CNc2nc(OCc3ccco3)ncc2F)cn1 [Compound 849] | 76 to 100 | 51 to 75 |  |  |  |  | 26 to 50 | 26 to 50 |  |  |  |  |  |  |  |  | 76 to 100 | 76 to 100
17 | CCCNC(=S)Nc1nc(OCc2ccn(C)n2)ncc1F [Compound 122] | 76 to 100 | 76 to 100 |  |  |  |  | 26 to 50 | 26 to 50 | 0 to 25 | 51 to 75 | 26 to 50 | 76 to 100 |  |  |  |  |  | 
18 | O=C(OCNc1nc(OCc2ccc(F)cc2)ncc1F)C1CC1 [Compound 410] | 26 to 50 | 51 to 75 | 51 to 75 | 76 to 100 | 51 to 75 | 76 to 100 | 26 to 50 | 26 to 50 |  |  |  |  |  |  |  |  |  | 
19 | CC(C)(C)OC(=O)NOc1ncc(F)c(N)n1 [Compound 481] | 76 to 100 | 76 to 100 | 76 to 100 | 76 to 100 | 76 to 100 | 76 to 100 | 26 to 50 | 76 to 100 |  |  |  |  |  |  |  |  |  | 
20 | Cn1nc(Oc2ncc(F)c(N)n2)cc1C(F)(F)F [Compound 764] | 26 to 50 | 26 to 50 | 0 to 25 | 0 to 25 | 0 to 25 | 0 to 25 | 26 to 50 | 0 to 25 |  |  |  |  |  |  |  |  |  | 
21 | Nc1nc(OCc2ccccc2N2CCOCC2)ncc1F [Compound 342] | 76 to 100 | 76 to 100 | 76 to 100 | 76 to 100 | 76 to 100 | 76 to 100 | 26 to 50 | 76 to 100 |  |  |  |  |  |  |  |  |  | 
22 | Fc1cnc(OCc2ccccn2)nc1NC1CC1 [Compound 952] | 0 to 25 | 0 to 25 |  |  |  |  | 0 to 25 | 0 to 25 |  |  |  |  |  |  |  |  |  | 26 to 50
23 | CC(CCOc1ncc(F)c(N)n1)c1ccccc1 (centres unmarked) [Compound 710] | 26 to 50 | 26 to 50 |  |  |  |  | 0 to 25 | 0 to 25 |  |  |  |  | 51 to 75 | 76 to 100 | 51 to 75 | 76 to 100 |  | 
24 | CCCCCCOc1ncc(F)c(N)n1 [Compound 137] | 0 to 25 | 76 to 100 |  |  |  |  | 0 to 25 | 0 to 25 | 26 to 50 | 76 to 100 | 26 to 50 | 76 to 100 |  |  |  |  |  | 
